Experimental data published in US9617258B2, “Pyrrolo[2,3-d]pyrimidinyl, pyrrolo[2,3-b]pyrazinyl and pyrrolo[2,3-d]pyridinyl acrylamides” (Pfizer Inc., priority 2013, dated 2017).

Assay: Stability of JAK3 covalent inhibitors in human whole blood;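 also: parent compound remaining over incubation time quantified by LC-MS/MS as peak area ratio against an internal standard, using pooled K2-EDTA blood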
Assay type: in vitro ADME
Details: both sexes, whole blood, 37° C., read-out: Human blood stability t1/2
`C=CC(=O)N1CCC(Nc2cnc3[nH]cc(C(=O)NCCC#N)c3n2)CC1` [Example 261, 2-[(1-acryloylpiperidin-4-yl)amino]-N-(2-cyanoethyl)-5H-pyrrolo[2,3-b]pyrazine-7-carboxamide] showed a half-life at 1 μM of over 360 min. Work on `C=CC(=O)N1CCC(Nc2cnc3[nH]cc(C(=O)NCC(C)(F)F)c3n2)CC1` [Example 282, 2-[(1-acryloylpiperidin-4-yl)amino]-N-(2,2-difluoropropyl)-5H-pyrrolo[2,3-b]pyrazine-7-carboxamide] yielded a half-life at 1 μM of 243 min. For `C=CC(=O)N1CC[C@H](C)[C@@H](Nc2ncnc3[nH]ccc23)C1` [Example 11, 1-((3R,4S)-3-((7H-pyrrolo[2,3-d]pyrimidin-4-yl)amino)-4-methylpiperidin-1-yl)prop-2-en-1-one], the half-life at 1 μM was over 296 min. For `C=CC(=O)N[C@H]1C[C@H](Nc2cnc3[nH]cc(C(=O)NC(C)C)c3n2)C1` [Example 198, 2-{[trans-3-(acryloylamino)cyclobutyl]amino}-N-(propan-2-yl)-5H-pyrrolo[2,3-b]pyrazine-7-carboxamide], the half-life at 1 μM was over 360 min. With `C=CC(=O)N1CCC(Oc2cnc3[nH]cc(-c4cnn(C)c4)c3n2)CC1` [Example 218, 1-(4-{[7-(1-methyl-1H-pyrazol-4-yl)-5H-pyrrolo[2,3-b]pyrazin-2-yl]oxy}piperidin-1-yl)prop-2-en-1-one] the half-life at 1 μM was over 360 min. Work on `C=CC(=O)N1C[C@H](C)C[C@@H](Nc2ncnc3[nH]ccc23)C1` (racemic) [Example 65, Rac-1-((3R,5R)-3-((7H-Pyrrolo[2,3-d]pyrimidin-4-yl)amino)-5-methylpiperidin-1-yl)prop-2-en-1-one] yielded a half-life at 1 μM of 267 min. `C=CC(=O)N1CC[C@]2(C)CCN(c3ncnc4[nH]ccc34)[C@@H]2C1` [Example 59, 1-((3aS,7aS)-3a-Methyl-1-(7H-pyrrolo[2,3-d]pyrimidin-4-yl)hexahydro-1H-pyrrolo[2,3-c]pyridin-6(2H)-yl)prop-2-en-1-one] showed a half-life at 1 μM of 184 min. In the case of `C=CC(=O)N1CCC(Nc2cnc3[nH]ccc3n2)CC1` [Example 176, 1-[4-(5H-pyrrolo[2,3-b]pyrazin-2-ylamino)piperidin-1-yl]prop-2-en-1-one], the half-life at 1 μM is reported as over 360 min. With `O=C(/C=C/C(F)(F)F)N1CC[C@@H]2CCN(c3ncnc4[nH]ccc34)[C@@H]2C1` [Example 81, (2E)-4,4,4-trifluoro-1-[(3aS,7aS)-1-(7H-pyrrolo[2,3-d]pyrimidin-4-yl)octahydro-6H-pyrrolo[2,3-c]pyridin-6-yl]but-2-en-1-one] the half-life at 1 μM was 16.9 min. Molecule `C=CC(=O)N1CC[C@@H](C)[C@H](Nc2ncnc3[nH]ccc23)C1` [Example 112, 1-[(3S,4R)-4-Methyl-3-(7H-pyrrolo[2,3-d]pyrimidin-4-ylamino)piperidin-1-yl]prop-2-en-1-one] has a half-life at 1 μM of 142 min. For `C=CC(=O)N1CCC(Nc2cnc3[nH]cc(C(=O)NC45CC(C4)C5)c3n2)CC1` [Example 281, 2-[(1-acryloylpiperidin-4-yl)amino]-N-(bicyclo[1.1.1]pent-1-yl)-5H-pyrrolo[2,3-b]pyrazine-7-carboxamide], the half-life at 1 μM was 346 min. Work on `C=CC(=O)N1CC[C@@H]2CCN(c3ncnc4[nH]ccc34)[C@@H]2C1` (single isomer, unassigned) [Example 8] yielded a half-life at 1 μM of 192 min. Work on `C=CC(=O)N1CCC[C@@H](Nc2ncnc3[nH]cc(-c4ccc5c(cnn5C)c4)c23)C1` [Example 34, 1-[(3R)-3-{[5-(1-methyl-1H-indazol-5-yl)-7H-pyrrolo[2,3-d]pyrimidin-4-yl]amino}piperidin-1-yl]prop-2-en-1-one] yielded a half-life at 1 μM of over 360 min. `C=CC(=O)N1CC[C@H](Nc2cnc3[nH]cc(C(=O)NC(C)C)c3n2)C1` [Example 171, 2-{[(3S)-1-acryloylpyrrolidin-3-yl]amino}-N-(propan-2-yl)-5H -pyrrolo[2,3-b]pyrazine-7-carboxamide] showed a half-life at 1 μM of over 360 min. `C=CC(=O)N1CC[C@H](C)[C@@H](Nc2ncnc3[nH]ccc23)C1` (racemic) [Example 50, 1-[(3R,4S)-4-methyl-3-(7H-pyrrolo[2,3-d]pyrimidin-4-ylamino)piperidin-1-yl]prop-2-en-1-one] gave a half-life at 1 μM of over 360 min. In the case of `C=CC(=O)N1CCN(c2cnc3[nH]cc(C(=O)NC(C)C)c3n2)C[C@@H]1CC` [Example 299, 2-[(3S)-4-acryloyl-3-ethylpiperazin-1-yl]-N-(propan-2-yl)-5H-pyrrolo[2,3-b]pyrazine-7-carboxamide], the half-life at 1 μM is reported as 199 min. Work on `C=CC(=O)N1CCN(c2cnc3[nH]cc(C(=O)NC(C)C)c3n2)[C@H](C)C1` [Example 307, 2-[(2R)-4-acryloyl-2-methylpiperazin-1-yl]-N-(propan-2-yl)-5H-pyrrolo[2,3-b]pyrazine-7-carboxamide] yielded a half-life at 1 μM of 122 min. Molecule `C=CC(=O)N1C[C@@H](O)C[C@@H](Nc2ncnc3[nH]cc(Cl)c23)C1` [Example 162, 1-{(3R,5S)-3-[(5-Chloro-7H-pyrrolo[2,3-d]pyrimidin-4-yl)amino]-5-hydroxypiperidin-1-yl}prop-2-en-1-one] has a half-life at 1 μM of over 360 min. In the case of `C=CC(=O)N1CCC(Nc2cnc3[nH]cc(C(=O)N[C@H]4CC[C@H](F)C4)c3n2)CC1` [Example 247, 2-[(1-acryloylpiperidin-4-yl)amino]-N-[(1S,3S)-3-fluorocyclopentyl]-5H-pyrrolo[2,3-b]pyrazine-7-carboxamide], the half-life at 1 μM is reported as 272 min. Molecule `C=CC(=O)N1CCC(Oc2cnc3[nH]cc(-c4ccnc(C)c4)c3n2)CC1` [Example 220, 1-(4-{[7-(2-methylpyridin-4-yl)-5H-pyrrolo[2,3-b]pyrazin-2-yl]oxy}piperidin-1-yl)prop-2-en-1-one] has a half-life at 1 μM of over 360 min. For `C=CC(=O)N1C[C@H](Nc2ncnc3[nH]ccc23)C[C@@H](OC)C1` [Example 77, 1-[(3R,5R)-3-Methoxy-5-(7H-pyrrolo[2,3-d]pyrimidin-4-ylamino)piperidin-1-yl]prop-2-en-1-one], the half-life at 1 μM was 252 min. `C=CC(=O)N1CCC(Nc2cnc3[nH]cc(C(=O)N[C@H](C)CCC)c3n2)CC1` [Example 274, 2-[(1-acryloylpiperidin-4-yl)amino]-N-[(2R)-pentan-2-yl]-5H-pyrrolo[2,3-b]pyrazine-7-carboxamide] showed a half-life at 1 μM of over 360 min. `C=CC(=O)N1CCN(c2cnc3[nH]cc(C(=O)NC(C)C)c3n2)C[C@@H]1C` [Example 295, 2-[(3S)-4-acryloyl-3-methylpiperazin-1-yl]-N-(propan-2-yl)-5H-pyrrolo[2,3-b]pyrazine-7-carboxamide] showed a half-life at 1 μM of 189 min. Molecule `C=CC(=O)N1CCC(Nc2cnc3[nH]cc(C(=O)NC4CCC(F)(F)C4)c3n2)CC1` (stereo not shown) [Example 259, 2-[(1-acryloylpiperidin-4-yl)amino]-N-(3,3-difluorocyclopentyl)-5H-pyrrolo[2,3-b]pyrazine-7-carboxamide] has a half-life at 1 μM of over 360 min. Work on `C=CC(=O)N1CCN(c2cnc3[nH]cc(C(=O)NC(C)C)c3n2)C[C@@H]1CC(C)C` [Example 303, 2-[(3S)-4-acryloyl-3-(2-methylpropyl)piperazin-1-yl]-N-(propan-2-yl)-5H -pyrrolo[2,3-b]pyrazine-7-carboxamide] yielded a half-life at 1 μM of 341 min. `C=CC(=O)N1CCC[C@@H](Nc2ncnc3[nH]cc(CCOC)c23)C1` [Example 46, 1-[(3R)-3-{[5-(2-methoxyethyl)-7H-pyrrolo[2,3-d]pyrimidin-4-yl]amino}piperidin-1-yl]prop-2-en-1-one] showed a half-life at 1 μM of over 344 min. In the case of `C=CC(=O)N1CCC(Nc2cnc3[nH]cc(C(=O)NCC4CCCC4)c3n2)CC1` [Example 270, 2-[(1-acryloylpiperidin-4-yl)amino]-N-(cyclopentylmethyl)-5H-pyrrolo[2,3-b]pyrazine-7-carboxamide], the half-life at 1 μM is reported as 232 min. In the case of `C=CC(=O)N1CCC(Nc2cnc3[nH]cc(C(=O)N[C@@H](C)CCC)c3n2)CC1` [Example 267, 2-[(1-acryloylpiperidin-4-yl)amino]-N-[(2S)-pentan-2-yl]-5H-pyrrolo[2,3-b]pyrazine-7-carboxamide], the half-life at 1 μM is reported as 224 min. With `C=CC(=O)N1CCC[C@@H](Nc2ncnc3[nH]cc(CC)c23)C1` [Example 44, 1-{(3R)-3-[(5-ethyl-7H-pyrrolo[2,3-d]pyrimidin-4-yl)amino]piperidin-1-yl}prop-2-en-1-one] the half-life at 1 μM was 166 min. For `C/C=C/C(=O)N1CCC[C@@H](Nc2ncnc3[nH]ccc23)C1` [Example 95, (2E)-1-[(3R)-3-(7H-pyrrolo[2,3-d]pyrimidin-4-ylamino)piperidin-1-yl]but-2-en-1-one], the half-life at 1 μM was over 360 min. For `C=CC(=O)N1CC(Nc2ncnc3[nH]ccc23)CCC1(C)C` (stereo not shown) [Example 67, 1-(5-((7H-Pyrrolo[2,3-d]pyrimidin-4-yl)amino)-2,2-dimethylpiperidin-1-yl)prop-2-en-1-one], the half-life at 1 μM was over 360 min. Work on `C=CC(=O)N1CCC[C@@H](Nc2ncnc3[nH]cc(-c4cccnc4)c23)C1` [Example 26, 1-[(3R)-3-{[5-(pyridin-3-yl)-7H-pyrrolo[2,3-d]pyrimidin-4-yl]amino}piperidin-1-yl]prop-2-en-1-one] yielded a half-life at 1 μM of over 360 min. `C=CC(=O)N1CCC[C@@H](Nc2ncnc3[nH]cc(C#N)c23)C1` [Example 45, 4-{[(3R)-1-acryloylpiperidin-3-yl]amino}-7H-pyrrolo[2,3-d]pyrimidine-5-carbonitrile] gave a half-life at 1 μM of over 360 min. `C=CC(=O)N1C[C@@H](C)C[C@H](Nc2ncnc3[nH]ccc23)C1` [Example 75, 1-((3S,5S)-3-((7H-Pyrrolo[2,3-d]pyrimidin-4-yl)amino)-5-methylpiperidin-1-yl)prop-2-en-1-one] gave a half-life at 1 μM of over 360 min. Work on `C#Cc1c[nH]c2ncnc(N3CC[C@H]4CCN(C(=O)C=C)C[C@H]43)c12` [Example 48, 1-[(3aS,7aS)-1-(5-ethynyl-7H-pyrrolo[2,3-d]pyrimidin-4-yl)octahydro-6H-pyrrolo[2,3-c]pyridin-6-yl]prop-2-en-1-one] yielded a half-life at 1 μM of 150 min. For `CN(C)C/C=C/C(=O)N1CC[C@@H]2CCN(c3ncnc4[nH]ccc34)[C@@H]2C1` [Example 82, (2E)-4-(dimethylamino)-1-[(3aS,7aS)-1-(7H-pyrrolo[2,3-d]pyrimidin-4-yl)octahydro-6H-pyrrolo[2,3-c]pyridin-6-yl]but-2-en-1-one], the half-life at 1 μM was over 360 min. `C=CC(=O)N1C[C@H](Nc2ncnc3[nH]ccc23)CC[C@@H]1CC` (single isomer, unassigned) [Example 9] showed a half-life at 1 μM of over 360 min.
